IC50 data for 20 compounds are collected here from patent publication US11590139B2, “Substituted aminopurine compounds, compositions thereof, and methods of treatment therewith” (Signal Pharmaceuticals, LLC, priority 2014, dated 2023).

SMILES strings stand for the structures.

For the first assay, the system named is Lox-IMVI melanoma cell line. Put plainly: Lox-IMVI anti-proliferative assay (growth inhibition, Cell Titer-Glo). The following applies: Homo sapiens; IC50 activity level in the cell-based Lox-IMVI anti-proliferative assay; read-out: Activity. In kind it is cell-based, human. Put shortly:
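First, compound was dispensed as a 10-point 3-fold series (0.5 nM–10 μM, duplicate). Then cells in RPMI + 10% FBS were added and grown 72 h at 37 °C with 0.2% DMSO. Finally, ATP luminescence was read and IC50 calculated versus DMSO control.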
For orientation: ATP-based viability assays read luminescence as a measure of living cells.
On to `NC(=O)[C@H]1CC[C@@H](n2c(Nc3cc(F)c(Cl)cc3F)nc3cnc(N[C@@H]4COC[C@H]4O)nc32)CC1` [Example 321, (1S,4s)-4-(8-(4-chloro-2,5-difluorophenylamino)-2-((3R,4S)-4-hydroxytetrahydrofuran-3-ylamino)-9H-purin-9-yl)cyclohexanecarboxamide], for which the IC50 was > 1000 nM.

Take `NC(=O)[C@H]1CC[C@@H](n2c(Nc3ccc(Cl)c(F)c3F)nc3cnc(NC4CC(F)(F)C4)nc32)CC1` [Example 232, (1s,4s)-4-(8-(4-chloro-2,3-difluorophenylamino)-2-(3,3-difluorocyclobutylamino)-9H-purin-9-yl)cyclohexanecarboxamide]: the IC50 is > 1000 nM.

In the case of `NC(=O)[C@H]1CC[C@@H](n2c(Nc3c(F)ccc(F)c3Cl)nc3cnc(NC4CCOCC4)nc32)CC1` [Example 90, (1s,4s)-4-(8-(2-chloro-3,6-difluorophenylamino)-2-(tetrahydro-2H-pyran-4-ylamino)-9H-purin-9-yl)cyclohexanecarboxamide], the IC50 lay within 250 to 500 nM.

For the compound `NC(=O)[C@H]1CC[C@@H](n2c(Nc3c(Cl)cc(F)cc3Cl)nc3cnc(N[C@H]4CCC[C@@H]4O)nc32)CC1` [Example 272, (1R,4s)-4-(8-(2,6-dichloro-4-fluorophenylamino)-2-((1S,2S)-2-hydroxycyclopentylamino)-9H-purin-9-yl)cyclohexanecarboxamide], the IC50 is > 1000 nM.

With `NC(=O)[C@H]1CC[C@@H](n2c(Nc3c(Cl)cc(Cl)cc3Cl)nc3cnc(N[C@H]4C[C@H](O)C4)nc32)CC1` [Example 300, (1s,4s)-4-(2-((1r,3r)-3-hydroxycyclobutylamino)-8-(2,4,6-trichlorophenylamino)-9H-purin-9-yl)cyclohexanecarboxamide], the IC50 was in the range of 500 to 1000 nM.

Take `Cc1cc(F)cc(F)c1Nc1nc2cnc(NC3CCOCC3)nc2n1[C@H]1CC[C@@H](C(N)=O)CC1` [Example 86, (1s,4s)-4-(8-(2,4-difluoro-6-methylphenylamino)-2-(tetrahydro-2H-pyran-4-ylamino)-9H-purin-9-yl)cyclohexanecarboxamide]: the IC50 was > 1000 nM.

`Cc1cc(Cl)cc(Cl)c1Nc1nc2cnc(NC3CCOCC3)nc2n1[C@H]1CC[C@@H](C(N)=O)CC1` [Example 103, (1s,4s)-4-(8-(2,4-dichloro-6-methylphenylamino)-2-(tetrahydro-2H-pyran-4-ylamino)-9H-purin-9-yl)cyclohexanecarboxamide]: the IC50 was > 1000 nM.

Regarding `NC(=O)[C@H]1CC[C@@H](n2c(Nc3c(F)cc(Cl)cc3F)nc3cnc(N[C@H]4CCCOC4)nc32)CC1` [Example 203, (1R,4s)-4-(8-(4-chloro-2,6-difluorophenylamino)-2-((S)-tetrahydro-2H-pyran-3-ylamino)-9H-purin-9-yl)cyclohexanecarboxamide], the IC50 is > 1000 nM.

For `NC(=O)[C@H]1CC[C@@H](n2c(Nc3ccc(Cl)c(Cl)c3F)nc3cnc(NC4CCOCC4)nc32)CC1` [Example 112, (1s,4s)-4-(8-(3,4-dichloro-2-fluorophenylamino)-2-(tetrahydro-2H-pyran-4-ylamino)-9H-purin-9-yl)cyclohexanecarboxamide], the IC50 fell in the range of 250 to 500 nM.

On to `C[C@@H](CO)Nc1ncc2nc(Nc3c(F)cc(Cl)cc3F)n([C@H]3CC[C@@H](C(N)=O)CC3)c2n1` [Example 169, (1R,4s)-4-(8-(4-chloro-2,6-difluorophenylamino)-2-((S)-1-hydroxypropan-2-ylamino)-9H-purin-9-yl)cyclohexanecarboxamide], for which the IC50 is 500 to 1000 nM.

Staying with this assay, now noted: Homo sapiens; Lox-IMVI anti-proliferative assay, IC50 activity level; read-out: Activity.
Regarding `C[C@@H](CO)Nc1ncc2nc(Nc3c(Cl)cc(Cl)cc3Cl)n([C@H]3CC[C@@](C)(C(N)=O)CC3)c2n1` [Example 549, (1R,4s)-4-(2-((S)-1-hydroxypropan-2-ylamino)-8-(2,4,6-trichlorophenylamino)-9H-purin-9-yl)-1-methylcyclohexanecarboxamide], the IC50 is < 250 nM.

As to `C[C@]1(C(N)=O)CC[C@H](n2c(Nc3c(Cl)cc(C#N)cc3Cl)nc3cnc(NC4CCOCC4)nc32)CC1` [Example 475, (1r,4r)-4-(8-(2,6-dichloro-4-cyanophenylamino)-2-(tetrahydro-2H-pyran-4-ylamino)-9H-purin-9-yl)-1-methylcyclohexanecarboxamide], the IC50 fell in the range of 500 to 1000 nM.

As for `NC(=O)[C@H]1CC[C@@H](n2c(Nc3c(Cl)cc(F)cc3Cl)nc3cnc(N[C@H]4CCCC[C@H]4O)nc32)CC1` [Example 516, (1R,4s)-4-(8-(2,6-dichloro-4-fluorophenylamino)-2-((1S,2R)-2-hydroxycyclohexylamino)-9H-purin-9-yl)cyclohexanecarboxamide], the IC50 was > 1000 nM.

In the case of `NC(=O)[C@H]1CC[C@@H](n2c(Nc3c(F)cc(F)cc3Cl)nc3cnc(N[C@@H]4CCC(F)(F)C4)nc32)CC1` [Example 590, (1S,4s)-4-(8-(2-chloro-4,6-difluorophenylamino)-2-((R)-3,3-difluorocyclopentylamino)-9H-purin-9-yl)cyclohexanecarboxamide], the IC50 is < 250 nM.

`C[C@@H](CO)Nc1ncc2nc(Nc3c(F)cc(F)cc3Cl)n([C@H]3CC[C@@](C)(C(N)=O)CC3)c2n1` [Example 548, (1R,4s)-4-(8-(2-chloro-4,6-difluorophenylamino)-2-((S)-1-hydroxypropan-2-ylamino)-9H-purin-9-yl)-1-methylcyclohexanecarboxamide]: the IC50 is < 250 nM.

The same assay, now with this note: Homo sapiens; Lox-IMVI melanoma cell line, anti-proliferative assay; read-out: Activity (IC50 activity level).
As for `Cc1ccc(S(=O)(=O)N2CCC[C@@H](Nc3ncc4nc(Nc5c(F)cc(C#N)cc5F)n([C@H]5CC[C@@H](C(N)=O)CC5)c4n3)C2)cc1` [Example 790, (1S,4s)-4-(8-(4-cyano-2,6-difluorophenylamino)-2-((R)-1-tosylpiperidin-3-ylamino)-9H-purin-9-yl)cyclohexanecarboxamide], the IC50 is > 1000 nM.

With `NC(=O)[C@H]1CC[C@@H](n2c(Nc3c(F)cc(F)cc3F)nc3cnc(NC[C@@H]4CCCC[C@@H]4O)nc32)CC1` [Example 652, (1R,4s)-4-(2-(((1S,2S)-2-hydroxycyclohexyl)methylamino)-8-(2,4,6-trifluorophenylamino)-9H-purin-9-yl)cyclohexanecarboxamide], the IC50 is > 1000 nM.

For `CCN1CCC[C@@H](Nc2ncc3nc(Nc4c(Cl)cc(C(F)(F)F)cc4Cl)n([C@H]4CC[C@@H](C(N)=O)CC4)c3n2)C1` [Example 737, (1S,4s)-4-(8-(2,6-dichloro-4-(trifluoromethyl)phenylamino)-2-((R)-1-ethylpiperidin-3-ylamino)-9H-purin-9-yl)cyclohexanecarboxamide], the IC50 is > 1000 nM.

For the compound `N#Cc1cc(F)c(Nc2nc3cnc(N[C@H]4CCOC[C@H]4F)nc3n2[C@H]2CC[C@@H](C(N)=O)CC2)c(F)c1` [Example 669, (1R,4s)-4-(8-(4-cyano-2,6-difluorophenylamino)-2-((3S,4S)-3-fluorotetrahydro-2H-pyran-4-ylamino)-9H-purin-9-yl)cyclohexanecarboxamide], the IC50 was in the range of 500 to 1000 nM.

Consider `Cc1ccc(S(=O)(=O)N2CCC[C@@H](Nc3ncc4nc(Nc5c(F)cc(F)cc5F)n([C@H]5CC[C@@H](C(N)=O)CC5)c4n3)C2)cc1` [Example 791, (1S,4s)-4-(2-((R)-1-tosylpiperidin-3-ylamino)-8-(2,4,6-trifluorophenylamino)-9H-purin-9-yl)cyclohexanecarboxamide], for which the IC50 was > 1000 nM.
